Test results as given in patent US10208081B2, “Bile acid derivatives as FXR/TGR5 agonists and methods of use thereof” (Enanta Pharmaceuticals, Inc., priority 2014, dated 2019).

Target: human FXR (NR1H4) (Homo sapiens (Human), UniProt Q96RI1)
Test: Human FXR (NR1H4) Assay (Gal4 promoter driven luciferase reporter, Indigo Bioscience kit IB00601)
Format: cell-based
Conditions: for Efficacy (%): efficacy normalized to CDCA set as 100%; for EC50: potency ranges
Text: Assays Human FXR (NR1H4) Assay
Determination of a ligand mediated Gal4 promoter driven transactivation quantify ligand binding mediated activation of FXR. FXR Reporter Assay kit purchased from Indigo Bioscience (Catalogue number: IB00601) to determine the potency and efficacy of compound developed by Enanta that can induce FXR activation. The principle application of this reporter assay system is to quantify functional activity of human FXR. The assay utilizes non-human mammalian cells, CHO (Chinese hamster ovary) cells engineered to express human NR1H4 protein (referred to as FXR). Reporter cells also incorporate the cDNA encoding beetle luciferase which catalyzes the substrates and yields photon emission. Luminescence intensity of the reaction is quantified using a plate-reading luminometer, Envision. Reporter Cells include the luciferase reporter gene functionally linked to an FXR responsive promoter. Thus, quantifying changes in luciferase expression in the treated reporter cells provides a sensitive surrogate measure of the changes in FXR activity. […] The assay is according to the manufacturer's instructions. In brief, the assay was performed in white, 96 well plates using final volume of 100 ul containing cells with different doses of compounds. Retrieve Reporter Cells from −80° C. storage. Perform a rapid thaw of the frozen cells by transferring a 10 ml volume of 37° C. cell recovery medium into the tube of frozen cells. Recap the tube of Reporter Cells and immediately place it in a 37° C. water bath for 5-10 minutes. Retrieve the tube of Reporter Cell Suspension from the water bath. Sanitize the outside surface of the tube with a 70% alcohol swab, and then transfer it into the cell culture hood. Dispense 90 μl of cell suspension into each well of the 96-well Assay Plate. Transfer the plate into 37° C. incubator, allowing the cells adherent to the bottom of the well. Dilute compounds in Dilution Plate (DP), and administrate to cells at Assay Plate (AP). DMSO content of the samples was kept at 0.2%. Cells were incubated for additional 22 hours before luciferase activities were measured. Thirty minutes before intending to quantify FXR activity, remove Detection Substrate and Detection Buffer from the refrigerator and place them in a low-light area so that they may equilibrate to room temperature. Remove the plate's lid and discard all media contents by ejecting it into an appropriate waste container. Gently tap the inverted plate onto a clean absorbent paper towel to remove residual droplets. Cells will remain tightly adhered to well bottoms. Add 100 μl of luciferase detection reagent to each well of the assay plate. Allow the assay plate to rest at room temperature for at least 5 minutes following the addition of LDR. Set the instrument (Envision) to perform a single 5 second “plate shake” prior to reading the first assay well. Read time may be 0.5 second (500 mSec) per well.

Chain of human FXR (NR1H4) (Q96RI1 whole entry, the tested form may be a part): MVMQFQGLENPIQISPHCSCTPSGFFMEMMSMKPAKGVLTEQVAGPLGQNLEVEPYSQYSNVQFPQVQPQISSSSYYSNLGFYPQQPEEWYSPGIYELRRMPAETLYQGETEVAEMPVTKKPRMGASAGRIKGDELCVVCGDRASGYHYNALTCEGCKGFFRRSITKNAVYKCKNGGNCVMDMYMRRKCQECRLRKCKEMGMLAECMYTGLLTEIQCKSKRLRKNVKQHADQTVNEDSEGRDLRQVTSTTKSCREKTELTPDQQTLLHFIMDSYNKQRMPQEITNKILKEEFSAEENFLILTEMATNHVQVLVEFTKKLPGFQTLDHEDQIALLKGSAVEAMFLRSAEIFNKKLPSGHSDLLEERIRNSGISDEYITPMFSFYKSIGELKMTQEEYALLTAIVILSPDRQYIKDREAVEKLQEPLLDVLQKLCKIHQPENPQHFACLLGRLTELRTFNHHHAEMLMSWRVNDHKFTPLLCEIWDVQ

Structure (SMILES) | Efficacy (%) | EC50 [nM]
CC[C@H]1[C@@H](O)[C@@H]2[C@H](CC[C@]3(C)[C@@H]([C@H](C)CCNC(=O)NS(=O)(=O)c4ccc5ccccc5c4)CC[C@@H]23)[C@@]2(C)CC[C@@H](O)C[C@@H]12 [Example 1] | 337 | < 100
CC[C@H]1[C@@H](O)[C@@H]2[C@H](CC[C@]3(C)[C@@H]([C@H](C)CCNC(=O)NS(=O)(=O)c4ccc(OC(F)(F)F)cc4)CC[C@@H]23)[C@@]2(C)CC[C@@H](O)C[C@@H]12 [Example 2] | 300 | < 100
CC[C@H]1[C@@H](O)[C@@H]2[C@H](CC[C@]3(C)[C@@H]([C@H](C)CCNC(=O)NS(=O)(=O)c4ccc(C(C)(C)C)cc4)CC[C@@H]23)[C@@]2(C)CC[C@@H](O)C[C@@H]12 [Example 3] | 396 | < 100
CC[C@H]1[C@@H](O)[C@@H]2[C@H](CC[C@]3(C)[C@@H]([C@H](C)CCNC(=O)NS(=O)(=O)c4ccccc4)CC[C@@H]23)[C@@]2(C)CC[C@@H](O)C[C@@H]12 [Example 4] | 342 | < 100
CC[C@H]1[C@@H](O)[C@@H]2[C@H](CC[C@]3(C)[C@@H]([C@H](C)CCNC(=O)NS(=O)(=O)C4CC4)CC[C@@H]23)[C@@]2(C)CC[C@@H](O)C[C@@H]12 [Example 5] | 369 | 100 to 1000
CC[C@H]1[C@@H](O)[C@@H]2[C@H](CC[C@]3(C)[C@@H]([C@H](C)CCNC(=O)NS(C)(=O)=O)CC[C@@H]23)[C@@]2(C)CC[C@@H](O)C[C@@H]12 [Example 6] | 269 | 100 to 1000
CC[C@H]1[C@@H](O)[C@@H]2[C@H](CC[C@]3(C)[C@@H]([C@H](C)CCNC(=O)NC(C)C)CC[C@@H]23)[C@@]2(C)CC[C@@H](O)C[C@@H]12 [Example 7] | 259 | 1000 to 10000
CC[C@H]1[C@@H](O)[C@@H]2[C@H](CC[C@]3(C)[C@@H]([C@H](C)CCCNS(=O)(=O)c4ccccc4)CC[C@@H]23)[C@@]2(C)CC[C@@H](O)C[C@@H]12 [Example 10] | 168 | 100 to 1000
CC[C@H]1[C@@H](O)[C@@H]2[C@H](CC[C@]3(C)[C@@H]([C@H](C)CCCNS(=O)(=O)C(C)C)CC[C@@H]23)[C@@]2(C)CC[C@@H](O)C[C@@H]12 [Example 11] | 267 | 1000 to 10000
CC[C@H]1[C@@H](O)[C@@H]2[C@H](CC[C@]3(C)[C@@H]([C@H](C)CCCNC(=O)NS(=O)(=O)c4ccc(C(C)(C)C)cc4)CC[C@@H]23)[C@@]2(C)CC[C@@H](O)C[C@@H]12 [Example 12] | 327 | < 100
CC[C@H]1[C@@H](O)[C@@H]2[C@H](CC[C@]3(C)[C@@H]([C@H](C)CCNC(=O)NS(=O)(=O)c4cccc(C)c4)CC[C@@H]23)[C@@]2(C)CC[C@@H](O)C[C@@H]12 [Example 13] | 245 | < 100
CC[C@H]1[C@@H](O)[C@@H]2[C@H](CC[C@]3(C)[C@@H]([C@H](C)CCNC(=O)NS(=O)(=O)c4ccc(C(F)(F)F)cc4)CC[C@@H]23)[C@@]2(C)CC[C@@H](O)C[C@@H]12 [Example 14] | 295 | 100 to 1000
CC[C@H]1[C@@H](O)[C@@H]2[C@H](CC[C@]3(C)[C@@H]([C@H](C)CCNC(=O)NS(=O)(=O)c4ccc(OC)cc4)CC[C@@H]23)[C@@]2(C)CC[C@@H](O)C[C@@H]12 [Example 15] | 337 | < 100
CC[C@H]1[C@@H](O)[C@@H]2[C@H](CC[C@]3(C)[C@@H]([C@H](C)CCNC(=O)NS(=O)(=O)c4ccc(C)c(F)c4)CC[C@@H]23)[C@@]2(C)CC[C@@H](O)C[C@@H]12 [Example 16] | 265 | < 100
CC[C@H]1[C@@H](O)[C@@H]2[C@H](CC[C@]3(C)[C@@H]([C@H](C)CCNC(=O)NS(=O)(=O)c4ccc(C)c(C)c4)CC[C@@H]23)[C@@]2(C)CC[C@@H](O)C[C@@H]12 [Example 17] | 357 | < 100
CC[C@H]1[C@@H](O)[C@@H]2[C@H](CC[C@]3(C)[C@@H]([C@H](C)CCCNC(=O)NS(=O)(=O)c4ccc(OC(F)(F)F)cc4)CC[C@@H]23)[C@@]2(C)CC[C@@H](O)C[C@@H]12 [Example 18] | 319 | < 100

Structure (SMILES) | Efficacy (%) | EC50 [nM]
CC[C@H]1[C@@H](O)[C@@H]2[C@H](CC[C@]3(C)[C@@H]([C@H](C)CCCNC(=O)NS(=O)(=O)c4ccc5ccccc5c4)CC[C@@H]23)[C@@]2(C)CC[C@@H](O)C[C@@H]12 [Example 19] | 323 | 100 to 1000
CC[C@H]1[C@@H](O)[C@@H]2[C@H](CC[C@]3(C)[C@@H]([C@H](C)CCCNC(=O)NS(=O)(=O)C4CC4)CC[C@@H]23)[C@@]2(C)CC[C@@H](O)C[C@@H]12 [Example 20] | 334 | 100 to 1000
CC[C@H]1[C@@H](O)[C@@H]2[C@H](CC[C@]3(C)[C@@H]([C@H](C)CCNC(=O)NS(=O)(=O)c4cccs4)CC[C@@H]23)[C@@]2(C)CC[C@@H](O)C[C@@H]12 [Example 21] | 402 | 100 to 1000
CC[C@H]1[C@@H](O)[C@@H]2[C@H](CC[C@]3(C)[C@@H]([C@H](C)CCNC(=O)NS(=O)(=O)C4CCCCC4)CC[C@@H]23)[C@@]2(C)CC[C@@H](O)C[C@@H]12 [Example 22] | 477 | < 100
CC[C@H]1[C@@H](O)[C@@H]2[C@H](CC[C@]3(C)[C@@H]([C@H](C)CCNC(=O)NS(=O)(=O)c4ccc5c(c4)OCO5)CC[C@@H]23)[C@@]2(C)CC[C@@H](O)C[C@@H]12 [Example 23] | 488 | < 100
CC[C@H]1[C@@H](O)[C@@H]2[C@H](CC[C@]3(C)[C@@H]([C@H](C)CCNC(=O)NS(=O)(=O)c4cccc(Cl)c4)CC[C@@H]23)[C@@]2(C)CC[C@@H](O)C[C@@H]12 [Example 24] | 421 | < 100
CC[C@H]1[C@@H](O)[C@@H]2[C@H](CC[C@]3(C)[C@@H]([C@H](C)CCNC(=O)NS(=O)(=O)c4ccc(Cl)cc4)CC[C@@H]23)[C@@]2(C)CC[C@@H](O)C[C@@H]12 [Example 25] | 357 | < 100
CC[C@H]1[C@@H](O)[C@@H]2[C@H](CC[C@]3(C)[C@@H]([C@H](C)CCN(C)C(=O)NS(=O)(=O)c4ccc(C(C)(C)C)cc4)CC[C@@H]23)[C@@]2(C)CC[C@@H](O)C[C@@H]12 [Example 26] | 378 | 100 to 1000
CC[C@H]1[C@@H](O)[C@@H]2[C@H](CC[C@]3(C)[C@@H]([C@H](C)CCNC(=O)NS(=O)(=O)C4CCCC4)CC[C@@H]23)[C@@]2(C)CC[C@@H](O)C[C@@H]12 [Example 27] | 275 | < 100
CC[C@H]1[C@@H](O)[C@@H]2[C@H](CC[C@]3(C)[C@@H]([C@H](C)CCNC(=O)NS(=O)(=O)C(C)(C)C)CC[C@@H]23)[C@@]2(C)CC[C@@H](O)C[C@@H]12 [Example 28] | 323 | < 100
CC[C@H]1[C@@H](O)[C@@H]2[C@H](CC[C@]3(C)[C@@H]([C@H](C)CNC(=O)NS(=O)(=O)C4CC4)CC[C@@H]23)[C@@]2(C)CC[C@@H](O)C[C@@H]12 [Example 30] | 194 | 1000 to 10000
CC[C@H]1[C@@H](O)[C@@H]2[C@H](CC[C@]3(C)[C@@H]([C@H](C)CNC(=O)NS(=O)(=O)c4ccccc4)CC[C@@H]23)[C@@]2(C)CC[C@@H](O)C[C@@H]12 [Example 31] | 305 | 100 to 1000
CC[C@H]1[C@@H](O)[C@@H]2[C@H](CC[C@]3(C)[C@@H]([C@H](C)CNC(=O)NS(=O)(=O)c4ccc5ccccc5c4)CC[C@@H]23)[C@@]2(C)CC[C@@H](O)C[C@@H]12 [Example 32] | 309 | < 100
CC[C@H]1[C@@H](O)[C@@H]2[C@H](CC[C@]3(C)[C@@H]([C@H](C)CCNC(=O)NS(=O)(=O)N4CCOCC4)CC[C@@H]23)[C@@]2(C)CC[C@@H](O)C[C@@H]12 [Example 37] | 254 | < 100
CC[C@H]1[C@@H](O)[C@@H]2[C@H](CC[C@]3(C)[C@@H]([C@H](C)CCNC(=O)NS(=O)(=O)N4CCCCC4)CC[C@@H]23)[C@@]2(C)CC[C@@H](O)C[C@@H]12 [Example 39] | 379 | < 100
